Earlier results on 2 molecules are cited in US10226042B2, “Synergistic pre-emergent and post-emergent weed control compositions and methods of use thereof” (BAYER INTELLECTUAL PROPERTY GMBH, priority 2009, dated 2019).

The conditions of the data set: stated in words, no test described.

As for `O=C(O)COc1ccc(Cl)cc1Cl` [2,4-D], the water solubility entry is on record as “water soluble”.

As to `COc1c(Cl)ccc(Cl)c1C(=O)O` [dicamba], the water solubility result is recorded as “water soluble”.
